Laboratory results taken from patent publication US11395854B2, “Trialkyl cationic lipids and methods of use thereof” (ARBUTUS BIOPHARMA CORPORATION, priority 2012, dated 2022).

Legend:
[1] = system: ApoB expression in the livers (Liver ApoB:GAPD mRNA ratio); assay: murine ApoB siRNA activity model: ApoB knockdown in liver by nucleic acid-lipid particles containing the cationic lipid; assay type: in vivo, female BALB/c mice
Method: This Example compares the effectiveness, in a murine ApoB siRNA activity model, of short chain trialkyl lipids of the present invention with lipids having longer alkyl chains but which are otherwise structurally identical to the short chain trialkyl lipids.
Nucleic acid-lipid particle formulations containing cationic lipids were assessed for their ability to knockdown ApoB expression in the livers of 7 to 9 week old female BALB/c mice. Mice were dosed intravenously (tail vein) in groups of three at either 0.02, 0.03 or 0.05 mg/kg. ApoB knockdown (normalized to the housekeeping gene GAPDH) was measured relative to PBS as a negative control. Each experiment was terminated at 48 hours after dosing.
For comparison to a positive control, the performance of short chain trialkyl lipids of the present invention was compared to a potent cationic lipid, referred to as C2K, that is known to facilitate nucleic acid delivery, in vivo, in nucleic acid-lipid particles (Nature Biotech., Vol 28(2),172 (2010)).

[2] = system: ApoB (normalized to the housekeeping gene GAPDH), liver; assay: murine ApoB model with a different, less potent siRNA sequence; liver ApoB silencing via Quantigene Assay; assay type: in vivo, Mice; details: 0.04 mg/kg siRNA; for ApoB gene silencing relative to PBS control (Liver ApoB:GAPD mRNA ratio): intravenous (tail vein), 48 h after dosing, different, less potent siRNA sequence
Method: In another experiment, two more lipids of the present invention (Compounds 62 and 71) were formulated into lipid nanoparticles with siRNA to target ApoB. Mice were dosed intravenously (tail vein) and sacrificed 48 h after dosing. Livers were harvested and homogenized, and the level of ApoB silencing (normalized to the housekeeping gene GAPDH) then measured via Quantigene Assay. The results are shown in Table 6 and are expressed as a percentage, relative to a PBS-treated negative control group. […] Inter-experiment comparisons are therefore not possible: […]

[3] = injected dose of 0.03 mg/kg, separate experiment

| Compound | activity compared to C2K ([1]; injected dose of 0.02 mg/kg) | activity compared to C2K [1, 3] | also measured |
| --- | --- | --- | --- |
| CCCCC/C=C\CCCC(CCC/C=C\CCCCC)C(CCC/C=C\CCCCC)OC(=O)CCCN(C)C (centres unmarked) [Compound 9] | greater activity than C2K | – | – |
| CCCCC/C=C\CCCC(CCC/C=C\CCCCC)C(CCC/C=C\CCCCC)OC(=O)CCCCCN(C)C (centres unmarked) [Compound 11, (6Z,16Z)-12-((Z)-dec-4-enyl)docosa-6,16-dien-11-yl 6-(dimethylamino)hexanoate] | – | greater activity than C2K | – |
| CCCCC/C=C\CCCC(CCC/C=C\CCCCC)C(CCC/C=C\CCCCC)OC(=O)CCCCN(C)C (centres unmarked) [Compound 13, (6Z,16Z)-12-((Z)-dec-4-enyl)docosa-6,16-dien-11-yl 5-(dimethylamino)pentanoate] | greater activity than C2K | greater activity than C2K | – |
| CCCCC/C=C\CCCC(CCC/C=C\CCCCC)C(CC/C=C\CCCCC)OC(=O)CCCCN(C)C (centres unmarked) [Compound 19, (6Z,15Z)-11-((Z)-dec-4-enyl)henicosa-6,15-dien-10-yl 5-(dimethylamino)pentanoate] | greater activity than C2K | greater activity than C2K | – |
| CCCCC/C=C\CCCC(CCC/C=C\CCCCC)C(CC/C=C\CCCCC)OC(=O)CCCN(C)C (centres unmarked) [Compound 22, (6Z,15Z)-11-((Z)-dec-4-enyl)henicosa-6,15-dien-10-yl 4-(dimethylamino)butanoate] | greater activity than C2K | – | – |
| CCCCC/C=C\CCCC(CCC/C=C\CCCCC)C(CCC/C=C\CCCCC)OC(=O)N(C)CCCN(C)C (centres unmarked) [Compound 23, (6Z,16Z)-12-((Z)-dec-4-enyl)docosa-6,16-dien-11-yl 3-(dimethylamino)propyl(methyl)carbamate] | – | greater activity than C2K | – |
| CCCCC/C=C\CCCC(CCC/C=C\CCCCC)C(CCC/C=C\CCCCC)OC(=O)NCCN(C)C (centres unmarked) [Compound 25, (6Z,16Z)-12-((Z)-dec-4-enyl)docosa-6,16-dien-11-yl 2-(dimethylamino)ethylcarbamate] | – | greater activity than C2K | – |
| CCCCC/C=C\CCCC(CCC/C=C\CCCCCC)C(CC/C=C\CCCCC)OC(=O)NCCCN(C)C (centres unmarked) [Compound 27, (6Z,15Z)-11-((Z)-dec-4-en-1-yl)docosa-6,15-dien-10-yl (3-(dimethylamino)propyl)carbamate] | greater activity than C2K | – | – |
| CCCCC/C=C\CCC(CC/C=C\CCCCC)C(CC/C=C\CCCCC)OC(=O)CCCN(C)C (centres unmarked) [Compound 40] | greater activity than C2K | – | – |
| CCCCC/C=C\CCCC(OC(=O)CCCCN(C)C)C(CCCCCCCCCC)CCCCCCCCCC (centres unmarked) [Compound 50, (Z)-12-decyldocos-6-en-11-yl 5-(dimethylamino)pentanoate] | greater activity than C2K | – | – |
| CCCCC/C=C\CCCC(CCC/C=C\CCCCC)C(CCC/C=C\CCCCC)OCCCCN(C)C (centres unmarked) [Compound 62, 4-(((6Z,16Z)-12-((Z)-dec-4-en-1-yl)docosa-6,16-dien-11-yl)oxy)-N,N-dimethylbutan-1-amine] | – | – | activity compared to the DLin-MP-DMA control [2]: significantly more active; ApoB gene silencing relative to PBS control (Liver ApoB:GAPD mRNA ratio) [2]: −56% |
| CC(C)CCCC(C)CCC(CCC(C)CCCC(C)C)C(CCC(C)CCCC(C)C)OC(=O)CCCCN(C)C (centres unmarked) [Compound 71, 10-(3,7-dimethyloctyl)-2,6,13,17-tetramethyloctadecan-9-yl 5-(dimethylamino)pentanoate] | – | – | ApoB gene silencing relative to PBS control (Liver ApoB:GAPD mRNA ratio) [2]: −29% |
| CCCCC/C=C\C/C=C\CCCCCCCCC(CCCCCCCC/C=C\C/C=C\CCCCC)OCCCN(C)C [DLin-MP-DMA, reference compound] | – | – | effectiveness compared to C2K ([1]; three separate experiments, 0.03 or 0.05 mg/kg): more effective than C2K; ApoB gene silencing relative to PBS control (Liver ApoB:GAPD mRNA ratio) [2]: −32% |
